Reference: PubChem BioAssay (NCI)
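Protocol summary: plate cells (96-well), add compound at 5 concentrations, incubate 48 h, interpolate endpoints linearly. GI50 marks 50% less growth. The concentration for full growth arrest is given as TGI.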

Assays:
Experiment in all cases: growth of human tumour cells (NCI), 48 h
786-0 renal = tested on: 786-0 renal
A498 renal = tested on: A498 renal
A549 NSCLC = tested on: A549 NSCLC
ACHN renal = tested on: ACHN renal
BT-549 breast = tested on: BT-549 breast
CAKI-1 renal = tested on: CAKI-1 renal
CCRF-CEM leukemia = tested on: CCRF-CEM leukemia
COLO 205 colon = tested on: COLO 205 colon
DU-145 prostate = tested on: DU-145 prostate
EKVX NSCLC = tested on: EKVX NSCLC
HCC-2998 colon = tested on: HCC-2998 colon
HCT-116 colon = tested on: HCT-116 colon
HCT-15 colon = tested on: HCT-15 colon
HL-60(TB) leukemia = tested on: HL-60(TB) leukemia
HOP-62 NSCLC = tested on: HOP-62 NSCLC
HOP-92 NSCLC = tested on: HOP-92 NSCLC
HS 578T breast = tested on: HS 578T breast
HT29 colon = tested on: HT29 colon
IGROV1 ovarian = tested on: IGROV1 ovarian
K-562 leukemia = tested on: K-562 leukemia
KM12 colon = tested on: KM12 colon
LOX IMVI melanoma = tested on: LOX IMVI melanoma
M14 melanoma = tested on: M14 melanoma
MALME-3M melanoma = tested on: MALME-3M melanoma
MCF7 breast = tested on: MCF7 breast
MDA-MB-231 breast = tested on: MDA-MB-231 breast
MDA-MB-435 = tested on: MDA-MB-435
MOLT-4 leukemia = tested on: MOLT-4 leukemia
NCI-H226 lung = tested on: NCI-H226 lung
NCI-H23 lung = tested on: NCI-H23 lung
NCI-H460 lung = tested on: NCI-H460 lung
NCI-H522 lung = tested on: NCI-H522 lung
NCI/ADR-RES ovarian = tested on: NCI/ADR-RES ovarian
OVCAR-3 ovarian = tested on: OVCAR-3 ovarian
OVCAR-4 ovarian = tested on: OVCAR-4 ovarian
OVCAR-5 ovarian = tested on: OVCAR-5 ovarian
OVCAR-8 ovarian = tested on: OVCAR-8 ovarian
PC-3 prostate = tested on: PC-3 prostate
RPMI-8226 leukemia = tested on: RPMI-8226 leukemia
RXF 393 renal = tested on: RXF 393 renal
SF-268 CNS = tested on: SF-268 CNS
SF-295 CNS = tested on: SF-295 CNS
SF-539 CNS = tested on: SF-539 CNS
SK-MEL-2 melanoma = tested on: SK-MEL-2 melanoma
SK-MEL-28 melanoma = tested on: SK-MEL-28 melanoma
SK-MEL-5 melanoma = tested on: SK-MEL-5 melanoma
SK-OV-3 ovarian = tested on: SK-OV-3 ovarian
SN12C renal = tested on: SN12C renal
SNB-19 CNS = tested on: SNB-19 CNS
SNB-75 CNS = tested on: SNB-75 CNS
SR leukemia = tested on: SR leukemia
SW-620 colon = tested on: SW-620 colon
T-47D breast = tested on: T-47D breast
TK-10 renal = tested on: TK-10 renal
U251 CNS = tested on: U251 CNS
UACC-62 melanoma = tested on: UACC-62 melanoma
UO-31 renal = tested on: UO-31 renal

CC12CCC(O)CC1=CCC1C2CCC2(C)C(c3cccnc3)=CCC12 (centres undefined)
GI50 (786-0 renal): 50.4 µM | TGI (786-0 renal): > 100 µM | GI50 (A498 renal): > 100 µM | TGI (A498 renal): > 100 µM | GI50 (A549 NSCLC): > 100 µM | TGI (A549 NSCLC): > 100 µM | GI50 (ACHN renal): > 100 µM | TGI (ACHN renal): > 100 µM | GI50 (BT-549 breast): > 100 µM | TGI (BT-549 breast): > 100 µM | GI50 (CAKI-1 renal): > 100 µM | TGI (CAKI-1 renal): > 100 µM | GI50 (CCRF-CEM leukemia): > 100 µM | TGI (CCRF-CEM leukemia): > 100 µM | GI50 (COLO 205 colon): > 100 µM | TGI (COLO 205 colon): > 100 µM | GI50 (DU-145 prostate): > 100 µM | TGI (DU-145 prostate): > 100 µM | GI50 (EKVX NSCLC): > 100 µM | TGI (EKVX NSCLC): > 100 µM | GI50 (HCC-2998 colon): > 100 µM | TGI (HCC-2998 colon): > 100 µM | GI50 (HCT-116 colon): > 100 µM | TGI (HCT-116 colon): > 100 µM | GI50 (HCT-15 colon): > 100 µM | TGI (HCT-15 colon): > 100 µM | GI50 (HL-60(TB) leukemia): > 100 µM | TGI (HL-60(TB) leukemia): > 100 µM | GI50 (HOP-62 NSCLC): > 100 µM | TGI (HOP-62 NSCLC): > 100 µM | GI50 (HOP-92 NSCLC): 43 µM | TGI (HOP-92 NSCLC): > 100 µM | GI50 (HS 578T breast): > 100 µM | TGI (HS 578T breast): > 100 µM | GI50 (HT29 colon): 82.2 µM | TGI (HT29 colon): > 100 µM | GI50 (IGROV1 ovarian): > 100 µM | TGI (IGROV1 ovarian): > 100 µM | GI50 (K-562 leukemia): 76.8 µM | TGI (K-562 leukemia): > 100 µM | GI50 (KM12 colon): > 100 µM | TGI (KM12 colon): > 100 µM | GI50 (LOX IMVI melanoma): > 100 µM | TGI (LOX IMVI melanoma): > 100 µM | GI50 (M14 melanoma): > 100 µM | TGI (M14 melanoma): > 100 µM | GI50 (MALME-3M melanoma): > 100 µM | TGI (MALME-3M melanoma): > 100 µM | GI50 (MCF7 breast): > 100 µM | TGI (MCF7 breast): > 100 µM | GI50 (MDA-MB-231 breast): > 100 µM | TGI (MDA-MB-231 breast): > 100 µM | GI50 (MDA-MB-435): 83.7 µM | TGI (MDA-MB-435): > 100 µM | GI50 (MOLT-4 leukemia): > 100 µM | TGI (MOLT-4 leukemia): > 100 µM | GI50 (NCI-H226 lung): > 100 µM | TGI (NCI-H226 lung): > 100 µM | GI50 (NCI-H23 lung): > 100 µM | TGI (NCI-H23 lung): > 100 µM | GI50 (NCI-H460 lung): > 100 µM | TGI (NCI-H460 lung): > 100 µM | GI50 (NCI-H522 lung): > 100 µM | TGI (NCI-H522 lung): > 100 µM | GI50 (NCI/ADR-RES ovarian): > 100 µM | TGI (NCI/ADR-RES ovarian): > 100 µM | GI50 (OVCAR-3 ovarian): > 100 µM | TGI (OVCAR-3 ovarian): > 100 µM | GI50 (OVCAR-4 ovarian): > 100 µM | TGI (OVCAR-4 ovarian): > 100 µM | GI50 (OVCAR-5 ovarian): > 100 µM | TGI (OVCAR-5 ovarian): > 100 µM | GI50 (OVCAR-8 ovarian): > 100 µM | TGI (OVCAR-8 ovarian): > 100 µM | GI50 (PC-3 prostate): > 100 µM | TGI (PC-3 prostate): > 100 µM | GI50 (RPMI-8226 leukemia): 39.1 µM | TGI (RPMI-8226 leukemia): > 100 µM | GI50 (RXF 393 renal): 40.2 µM | TGI (RXF 393 renal): > 100 µM | GI50 (SF-268 CNS): 95.2 µM | TGI (SF-268 CNS): > 100 µM | GI50 (SF-295 CNS): 56 µM | TGI (SF-295 CNS): > 100 µM | GI50 (SF-539 CNS): > 100 µM | TGI (SF-539 CNS): > 100 µM | GI50 (SK-MEL-2 melanoma): > 100 µM | TGI (SK-MEL-2 melanoma): > 100 µM | GI50 (SK-MEL-28 melanoma): > 100 µM | TGI (SK-MEL-28 melanoma): > 100 µM | GI50 (SK-MEL-5 melanoma): 74.2 µM | TGI (SK-MEL-5 melanoma): > 100 µM | GI50 (SK-OV-3 ovarian): > 100 µM | TGI (SK-OV-3 ovarian): > 100 µM | GI50 (SN12C renal): > 100 µM | TGI (SN12C renal): > 100 µM | GI50 (SNB-19 CNS): > 100 µM | TGI (SNB-19 CNS): > 100 µM | GI50 (SNB-75 CNS): 48.5 µM | TGI (SNB-75 CNS): > 100 µM | GI50 (SR leukemia): 93.9 µM | TGI (SR leukemia): > 100 µM | GI50 (SW-620 colon): > 100 µM | TGI (SW-620 colon): > 100 µM | GI50 (T-47D breast): > 100 µM | TGI (T-47D breast): > 100 µM | GI50 (TK-10 renal): > 100 µM | TGI (TK-10 renal): > 100 µM | GI50 (U251 CNS): 70.1 µM | TGI (U251 CNS): > 100 µM | GI50 (UACC-62 melanoma): > 100 µM | TGI (UACC-62 melanoma): > 100 µM | GI50 (UO-31 renal): > 100 µM | TGI (UO-31 renal): > 100 µM
